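Test compounds were applied to cells in 96-well plates for 48 hours at 5 doses. GI50 = concentration required for 50% inhibition of growth.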 Activity calls are given as the source filed them. No stated cut-off is given here; in the data, active = GI50 up to about 1.1 µM and inactive = higher.
What was measured:
Assay in all cases: NCI anticancer screen, dose series, 48 h
[1] = tested on: SNB-75
[2] = tested on: OVCAR-4
[3] = tested on: SK-MEL-2
[4] = tested on: NCI-H226
[5] = tested on: NCI-H522
[6] = tested on: SNB-19
[7] = tested on: DMS-273
[8] = tested on: DLD-1
[9] = tested on: HL-60
[10] = tested on: MOLT-4
[11] = tested on: HOP-62
[12] = tested on: CCRF-CEM
[13] = tested on: COLO 205
[14] = tested on: LOX IMVI
[15] = tested on: K562
[16] = tested on: RPMI-8226
[17] = tested on: KM12
[18] = tested on: A549
[19] = tested on: M14
[20] = tested on: OVCAR-3
[21] = tested on: LXFL 529
[22] = tested on: SW-620
[23] = tested on: OVCAR-8
[24] = tested on: SF-295
[25] = tested on: KM-20L2
[26] = tested on: IGROV-1
[27] = tested on: XF498
[28] = tested on: HT-29
[29] = tested on: M19-MEL
[30] = tested on: A498
[31] = tested on: UACC-62
[32] = tested on: HCT-15
[33] = tested on: U-251
[34] = tested on: ACHN
[35] = tested on: HCT-116
[36] = tested on: DMS-114
[37] = tested on: HCC 2998
[38] = tested on: NCI-H23
[39] = tested on: UO-31
[40] = tested on: UACC-257
[41] = tested on: SR
[42] = tested on: RXF 631
[43] = tested on: SF-539
[44] = tested on: SN12C
[45] = tested on: Malme-3M
[46] = tested on: SK-MEL-5
[47] = tested on: CAKI-1
[48] = tested on: TK-10
[49] = tested on: RXF 393
[50] = tested on: EKVX
[51] = tested on: 786-0
[52] = tested on: SK-MEL-28
[53] = tested on: SF-268
[54] = tested on: SK-OV-3
[55] = tested on: SNB-78

Question: For `CNS(=O)(=O)NN(C)S(=O)(=O)c1ccc(Br)cc1`, which GI50 [1] is on record?
Answer: > 100 µM (inactive)

Question: And the GI50 [2]?
Answer: > 100 µM (inactive)

Question: What about the GI50 [3] of the same molecule?
Answer: > 100 µM (inactive)

Question: What about the GI50 [4] of the same molecule?
Answer: > 100 µM (inactive)

Question: What about the GI50 [5] of the same molecule?
Answer: > 100 µM (inactive)

Question: What about the GI50 [6] of the same molecule?
Answer: > 100 µM (inactive)

Question: And the GI50 [7]?
Answer: > 100 µM (inactive)

Question: What about the GI50 [8] of the same molecule?
Answer: > 10 µM (inactive)

Question: And the GI50 [9]?
Answer: > 100 µM (inactive)

Question: And the GI50 [10]?
Answer: > 100 µM (inactive)

Question: What about the GI50 [11] of the same molecule?
Answer: > 100 µM (inactive)

Question: And the GI50 [12]?
Answer: > 100 µM (inactive)

Question: And the GI50 [13]?
Answer: > 100 µM (inactive)

Question: And the GI50 [14]?
Answer: > 100 µM (inactive)

Question: What about the GI50 [15] of the same molecule?
Answer: > 100 µM (inactive)

Question: And the GI50 [16]?
Answer: > 100 µM (inactive)

Question: And the GI50 [17]?
Answer: > 100 µM (inactive)

Question: What about the GI50 [18] of the same molecule?
Answer: > 100 µM (inactive)

Question: What about the GI50 [19] of the same molecule?
Answer: > 100 µM (inactive)

Question: And the GI50 [20]?
Answer: > 100 µM (inactive)

Question: And the GI50 [21]?
Answer: > 100 µM (inactive)

Question: What about the GI50 [22] of the same molecule?
Answer: > 100 µM (inactive)

Question: What about the GI50 [23] of the same molecule?
Answer: > 100 µM (inactive)

Question: What about the GI50 [24] of the same molecule?
Answer: > 100 µM (inactive)

Question: What about the GI50 [25] of the same molecule?
Answer: > 100 µM (inactive)

Question: What about the GI50 [26] of the same molecule?
Answer: > 100 µM (inactive)

Question: And the GI50 [27]?
Answer: > 100 µM (inactive)

Question: What about the GI50 [28] of the same molecule?
Answer: > 100 µM (inactive)

Question: What about the GI50 [29] of the same molecule?
Answer: > 100 µM (inactive)

Question: And the GI50 [30]?
Answer: > 100 µM (inactive)

Question: What about the GI50 [31] of the same molecule?
Answer: > 100 µM (inactive)

Question: What about the GI50 [32] of the same molecule?
Answer: > 100 µM

Question: What about the GI50 [33] of the same molecule?
Answer: 72.9 µM (inactive)

Question: What about the GI50 [34] of the same molecule?
Answer: > 100 µM (inactive)

Question: What about the GI50 [35] of the same molecule?
Answer: > 100 µM (inactive)

Question: What about the GI50 [36] of the same molecule?
Answer: > 100 µM (inactive)

Question: What about the GI50 [37] of the same molecule?
Answer: > 100 µM (inactive)

Question: And the GI50 [38]?
Answer: > 100 µM (inactive)

Question: What about the GI50 [39] of the same molecule?
Answer: > 100 µM (inactive)

Question: What about the GI50 [40] of the same molecule?
Answer: > 100 µM (inactive)

Question: And the GI50 [41]?
Answer: > 100 µM (inactive)

Question: What about the GI50 [42] of the same molecule?
Answer: > 100 µM (inactive)

Question: And the GI50 [43]?
Answer: > 100 µM (inactive)

Question: And the GI50 [44]?
Answer: > 100 µM (inactive)

Question: And the GI50 [45]?
Answer: > 100 µM (inactive)

Question: And the GI50 [46]?
Answer: > 100 µM (inactive)

Question: And the GI50 [47]?
Answer: > 100 µM (inactive)

Question: And the GI50 [48]?
Answer: > 100 µM (inactive)

Question: And the GI50 [49]?
Answer: > 100 µM (inactive)

Question: And the GI50 [50]?
Answer: > 100 µM (inactive)

Question: And the GI50 [51]?
Answer: > 100 µM (inactive)

Question: Which GI50 [1] does the source give for `O=C(C#Cc1ccccc1)Nc1ccccc1CC(c1c[nH]c2ccccc12)c1c[nH]c2ccccc12` here?
Answer: 5.9 µM (inactive)

Question: And the GI50 [52]?
Answer: 15.5 µM (inactive)

Question: And the GI50 [3]?
Answer: 18.3 µM (inactive)

Question: What about the GI50 [4] of the same molecule?
Answer: 16.6 µM (inactive)

Question: What about the GI50 [5] of the same molecule?
Answer: 11.6 µM (inactive)

Question: What about the GI50 [6] of the same molecule?
Answer: 26 µM (inactive)

Question: And the GI50 [53]?
Answer: 25.4 µM (inactive)

Question: And the GI50 [7]?
Answer: 11.3 µM (inactive)

Question: What about the GI50 [8] of the same molecule?
Answer: 17 µM (inactive)

Question: And the GI50 [10]?
Answer: 3.33 µM (inactive)

Question: And the GI50 [11]?
Answer: 39.6 µM (inactive)

Question: What about the GI50 [12] of the same molecule?
Answer: 3.3 µM (inactive)

Question: What about the GI50 [13] of the same molecule?
Answer: 18.2 µM (inactive)

Question: And the GI50 [14]?
Answer: 7.43 µM (inactive)

Question: And the GI50 [15]?
Answer: 4.47 µM (inactive)

Question: And the GI50 [16]?
Answer: 3.52 µM (inactive)

Question: And the GI50 [17]?
Answer: 14.7 µM (inactive)

Question: What about the GI50 [18] of the same molecule?
Answer: 23.2 µM (inactive)

Question: And the GI50 [54]?
Answer: 33.2 µM (inactive)

Question: What about the GI50 [19] of the same molecule?
Answer: 15.6 µM (inactive)

Question: And the GI50 [20]?
Answer: 9.44 µM (inactive)

Question: And the GI50 [21]?
Answer: 6.35 µM (inactive)

Question: And the GI50 [22]?
Answer: 12.1 µM (inactive)

Question: And the GI50 [55]?
Answer: 11.5 µM (inactive)

Question: And the GI50 [23]?
Answer: 8.32 µM (inactive)

Question: What about the GI50 [24] of the same molecule?
Answer: 9.46 µM (inactive)

Question: What about the GI50 [26] of the same molecule?
Answer: 16.3 µM (inactive)

Question: And the GI50 [27]?
Answer: 29.4 µM (inactive)

Question: What about the GI50 [28] of the same molecule?
Answer: 10.3 µM (inactive)

Question: What about the GI50 [29] of the same molecule?
Answer: 16.4 µM (inactive)

Question: What about the GI50 [31] of the same molecule?
Answer: 7.5 µM (inactive)

Question: What about the GI50 [32] of the same molecule?
Answer: 7.5 µM

Question: And the GI50 [37]?
Answer: 23.2 µM (inactive)

Question: And the GI50 [38]?
Answer: 15.4 µM (inactive)

Question: What about the GI50 [39] of the same molecule?
Answer: 13.5 µM (inactive)

Question: What about the GI50 [40] of the same molecule?
Answer: 23.8 µM (inactive)

Question: What about the GI50 [42] of the same molecule?
Answer: 21.3 µM (inactive)

Question: And the GI50 [43]?
Answer: 12.3 µM (inactive)

Question: And the GI50 [44]?
Answer: 8.83 µM (inactive)

Question: And the GI50 [45]?
Answer: 25.6 µM (inactive)

Question: And the GI50 [46]?
Answer: 17.9 µM (inactive)

Question: What about the GI50 [47] of the same molecule?
Answer: 16.9 µM (inactive)

Question: And the GI50 [48]?
Answer: 31.5 µM (inactive)

Question: And the GI50 [49]?
Answer: 3.02 µM (inactive)

Question: And the GI50 [50]?
Answer: 12.3 µM (inactive)

Question: And the GI50 [51]?
Answer: 9.53 µM (inactive)
